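Assay format: 96-well plates, 48-hour exposure. GI50 = concentration required for 50% inhibition of growth. TGI is the concentration that stops growth completely.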
Assays:
Test in all cases: NCI anticancer screen, dose series, 48 h
[1] = tested on: SK-MEL-2 melanoma
[2] = tested on: MALME-3M melanoma
[3] = tested on: M14 melanoma
[4] = tested on: SN12C renal
[5] = tested on: SK-MEL-28 melanoma
[6] = tested on: SW-620 colon
[7] = tested on: A549 NSCLC
[8] = tested on: MOLT-4 leukemia
[9] = tested on: IGROV1 ovarian
[10] = tested on: NCI-H460 lung
[11] = tested on: HS 578T breast
[12] = tested on: SK-MEL-5 melanoma
[13] = tested on: OVCAR-5 ovarian
[14] = tested on: MDA-MB-435
[15] = tested on: NCI/ADR-RES ovarian
[16] = tested on: HOP-62 NSCLC
[17] = tested on: SR leukemia
[18] = tested on: MDA-MB-231 breast
[19] = tested on: OVCAR-3 ovarian
[20] = tested on: KM12 colon
[21] = tested on: SF-268 CNS
[22] = tested on: ACHN renal
[23] = tested on: HOP-92 NSCLC
[24] = tested on: MCF7 breast
[25] = tested on: CAKI-1 renal
[26] = tested on: A498 renal
[27] = tested on: PC-3 prostate
[28] = tested on: SF-295 CNS
[29] = tested on: HL-60(TB) leukemia
[30] = tested on: UACC-257 melanoma
[31] = tested on: T-47D breast
[32] = tested on: HCT-116 colon
[33] = tested on: CCRF-CEM leukemia
[34] = tested on: SF-539 CNS
[35] = tested on: K-562 leukemia
[36] = tested on: SK-OV-3 ovarian
[37] = tested on: NCI-H226 lung
[38] = tested on: TK-10 renal
[39] = tested on: SNB-19 CNS
[40] = tested on: LOX IMVI melanoma
[41] = tested on: RPMI-8226 leukemia
[42] = tested on: SNB-75 CNS
[43] = tested on: COLO 205 colon
[44] = tested on: NCI-H522 lung
[45] = tested on: UO-31 renal
[46] = tested on: 786-0 renal
[47] = tested on: HCT-15 colon
[48] = tested on: NCI-H23 lung
[49] = tested on: HCC-2998 colon
[50] = tested on: RXF 393 renal
[51] = tested on: OVCAR-8 ovarian
[52] = tested on: BT-549 breast
[53] = tested on: UACC-62 melanoma
[54] = tested on: DU-145 prostate

Compound `COc1ccc(C2CC(c3cccc(Nc4ccnc5cc(Cl)ccc45)c3)=NN2c2ccc(Cl)cc2)cc1` (stereo not drawn) has a GI50 [1] of 11.5 µM, a TGI [1] of 38.9 µM and a GI50 [2] of 22.7 µM. The TGI [2] was 59.5 µM, the GI50 [3] was 0.752 µM and the TGI [3] was 11 µM. It also gave a GI50 [4] of 13 µM, a TGI [4] greater than 100 µM and a GI50 [5] of 7.07 µM. It also gave a TGI [5] of 66.9 µM, a GI50 [6] of 0.533 µM and a TGI [6] of 21.6 µM. For the same compound, the GI50 [7] was 4.7 µM, the TGI [7] was greater than 100 µM and the GI50 [8] was 3.18 µM. For the same compound, the TGI [8] was 69.5 µM, the GI50 [9] was 18.8 µM and the TGI [9] was greater than 100 µM. The GI50 [10] was 3.04 µM, the TGI [10] was 17.4 µM and the GI50 [11] was 14.7 µM. For the same compound, the TGI [11] was greater than 100 µM, the GI50 [12] was 3.01 µM and the TGI [12] was 10.2 µM. It also gave a GI50 [13] of 15.6 µM, a TGI [13] of 87 µM and a GI50 [14] of 0.717 µM. For the same compound, the TGI [14] was 49.6 µM, the GI50 [15] was 9.51 µM and the TGI [15] was 43.4 µM. It also gave a GI50 [16] of 2.44 µM, a TGI [16] of 25.6 µM and a GI50 [17] of 4.29 µM. The TGI [17] was 32.5 µM, the GI50 [18] was 4.84 µM and the TGI [18] was 65.2 µM. For the same compound, the GI50 [19] was 11 µM, the TGI [19] was greater than 100 µM and the GI50 [20] was 0.713 µM. For the same compound, the TGI [20] was 23.9 µM, the GI50 [21] was 15.5 µM and the TGI [21] was greater than 100 µM. It also gave a GI50 [22] of 4.63 µM, a TGI [22] of 90.6 µM and a GI50 [23] of 10.8 µM. The TGI [23] was 66.3 µM, the GI50 [24] was 3.45 µM and the TGI [24] was 44.3 µM. The GI50 [25] was 2.38 µM, the TGI [25] was greater than 100 µM and the GI50 [26] was 4.64 µM. It also gave a TGI [26] of 53.9 µM, a GI50 [27] of 1.18 µM and a TGI [27] of 64.5 µM. For the same compound, the GI50 [28] was 5.8 µM, the TGI [28] was 23.3 µM and the GI50 [29] was 4.78 µM. The TGI [29] was 26.9 µM, the GI50 [30] was 6.4 µM and the TGI [30] was 51.4 µM. For the same compound, the GI50 [31] was 0.702 µM, the TGI [31] was 33.2 µM and the GI50 [32] was 2.27 µM. For the same compound, the TGI [32] was 19.2 µM, the GI50 [33] was 1.84 µM and the TGI [33] was 43.4 µM. The GI50 [34] was 1.8 µM, the TGI [34] was 4.43 µM and the GI50 [35] was 2.75 µM. It also gave a TGI [35] greater than 100 µM, a GI50 [36] of 15 µM and a TGI [36] of 99.3 µM. The GI50 [37] was 14.2 µM, the TGI [37] was 94.8 µM and the GI50 [38] was 12.9 µM. It also gave a TGI [38] greater than 100 µM, a GI50 [39] of 15.9 µM and a TGI [39] greater than 100 µM. It also gave a GI50 [40] of 1.3 µM, a TGI [40] of 13.6 µM and a GI50 [41] of 4.7 µM. It also gave a TGI [41] of 31.9 µM, a GI50 [42] of 12.5 µM and a TGI [42] of 97.9 µM. The GI50 [43] was 3.78 µM, the TGI [43] was 19.7 µM and the GI50 [44] was 4.09 µM. It also gave a TGI [44] of 23.2 µM, a GI50 [45] of 1.87 µM and a TGI [45] of 31.3 µM. For the same compound, the GI50 [46] was 2.94 µM, the TGI [46] was 44 µM and the GI50 [47] was 2.3 µM. The TGI [47] was 18.7 µM, the GI50 [48] was 17.5 µM and the TGI [48] was greater than 100 µM. The GI50 [49] was 3.41 µM, the TGI [49] was 15.1 µM and the GI50 [50] was 17.5 µM. For the same compound, the TGI [50] was 74.8 µM, the GI50 [51] was 5 µM and the TGI [51] was 91 µM. The GI50 [52] was 2.67 µM, the TGI [52] was 26.6 µM and the GI50 [53] was 0.601 µM. For the same compound, the TGI [53] was 13.3 µM, the GI50 [54] was 28.4 µM and the TGI [54] was greater than 100 µM.

Reference: PubChem BioAssay (NCI)
